Assay [1] has as its target T1, aggregated recombinant human-microtubule associated protein Tau (Homo sapiens, UniProt P10636).
T1 construct: Recombinant human-microtubule associated protein Tau purified from E. coli is aggregated at a concentration of 5 μM with Arachidonic Acid (100 μM) in Tris 10 mM pH8, 24 h at 37° C
As to the kind of experiment: Thiazin-red R displacement fluorescence assay on aggregated Tau. The format is binding. The settings on record: displacement of Thiazin-red R from aggregated Tau; compound 0.3 nM to 10000 nM; 30 min room temperature; Ex 531 nm/Em 595 nm.

The target of assay [2] is T2, aggregated synthetic Aβ40 (Homo sapiens, UniProt P05067).
T2 construct: Synthetic Aβ40 is aggregated at a concentration of 50 μM
T2 sequence (P05067 672-711 limits assumed): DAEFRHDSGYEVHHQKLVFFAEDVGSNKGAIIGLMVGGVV
As to the kind of experiment: Thiazin-red R displacement fluorescence assay on aggregated A-beta. The format is binding. Conditions: displacement of Thiazin-red R from aggregated Aβ40; compound 0.3 nM to 10000 nM; 30 min room temperature; Ex 531 nm/Em 595 nm.

Structures are written as SMILES.

A word on the IC50: it is the concentration at which inhibition is half-maximal.

T1 sequence (P10636 whole entry): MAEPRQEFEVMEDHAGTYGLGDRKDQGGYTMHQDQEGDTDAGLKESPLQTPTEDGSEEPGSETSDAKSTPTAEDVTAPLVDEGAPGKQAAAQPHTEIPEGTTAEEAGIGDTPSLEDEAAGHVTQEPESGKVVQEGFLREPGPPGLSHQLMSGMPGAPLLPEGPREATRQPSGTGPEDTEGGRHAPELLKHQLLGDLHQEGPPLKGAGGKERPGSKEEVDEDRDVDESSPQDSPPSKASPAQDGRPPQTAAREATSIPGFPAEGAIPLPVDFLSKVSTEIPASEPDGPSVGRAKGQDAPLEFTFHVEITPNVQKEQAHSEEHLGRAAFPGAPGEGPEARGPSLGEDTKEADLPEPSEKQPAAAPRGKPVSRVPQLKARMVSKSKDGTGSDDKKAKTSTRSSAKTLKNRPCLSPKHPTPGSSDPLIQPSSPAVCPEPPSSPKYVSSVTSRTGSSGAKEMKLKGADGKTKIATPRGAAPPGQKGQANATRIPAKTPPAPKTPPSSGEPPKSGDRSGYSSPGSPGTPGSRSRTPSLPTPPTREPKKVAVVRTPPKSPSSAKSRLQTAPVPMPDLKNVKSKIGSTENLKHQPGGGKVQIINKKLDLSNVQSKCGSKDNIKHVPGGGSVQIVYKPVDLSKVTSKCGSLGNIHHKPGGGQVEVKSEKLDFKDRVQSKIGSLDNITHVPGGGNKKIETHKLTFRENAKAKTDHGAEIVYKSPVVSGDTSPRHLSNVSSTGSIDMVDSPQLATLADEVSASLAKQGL

Take `COc1cc(/C=c2\sc3nc(-c4cccc(OC(F)(F)F)c4)cn3c2=O)cc(Cl)c1O` [Example 22, 2-[1-(3-Chloro-4-hydroxy-5-methoxy-phenyl)-meth-(Z)-ylidene]-6-(3-trifluoromethoxy-phenyl)-imidazo[2,1-b]thiazol-3-one]: the IC50 in assay [1] stood at 3 nM; in assay [2], 198 nM.
In the same order, the values of `COc1cc(/C=c2\sc3nc(-c4ccc(N5CCCC5)cc4)cn3c2=O)cc(Cl)c1O` [Example 90, 2-[1-(3-Chloro-4-hydroxy-5-methoxy-phenyl)-meth-(Z)-ylidene]-6-(4-(pyrrolidin-1-yl)phenyl)-imidazo[2,1-b]thiazol-3-one] are 37 nM and 16 nM.
The matching figures for `COc1ccc(-c2nc3s/c(=C\c4cc(F)c(O)c(OC)c4)c(=O)n3c2C)cc1` [Example 15, 2-[1-(3-Fluoro-4-hydroxy-5-methoxy-phenyl)-meth-(Z)-ylidene]-6-(4-methoxy-phenyl)-5-methyl-imidazo[2,1-b]thiazol-3-one]: 53 nM and 437 nM.
As for `COc1cc(/C=c2\sc3nc(-c4ccc(C(=O)N(C)CCOCCF)cc4)cn3c2=O)cc(Cl)c1O` [Example 23, 4-{2-[1-(3-Chloro-4-hydroxy-5-methoxy-phenyl)-meth-(Z)-ylidene]-3-oxo-2,3-dihydro-imidazo[2,1-b]thiazol-6-yl}-N-[2-(2-fluoro-ethoxy)-ethyl]-N-methyl-benzamide], the IC50 in assay [1] came out at 26 nM; in assay [2], 328 nM.
The matching figures for `COc1cc(/C=c2\sc3nc(-c4cccc(F)c4)cn3c2=O)cc(OC)c1O` [Example 59, 2-[1-(4-Hydroxy-3,5-dimethoxy-phenyl)-meth-(Z)-ylidene]-6-(3-fluoro-phenyl)-imidazo[2,1-b]thiazol-3-one]: 2 nM and 50 nM.
As for `CCCOc1cc(/C=c2\sc3nc(-c4cccs4)cn3c2=O)cc(Cl)c1O` [Example 132, 2-[1-(3-Chloro-4-hydroxy-5-propoxy-phenyl)-meth-(Z)-ylidene]-6-thiophen-2-yl-imidazo[2,1-b]thiazol-3-one], the 50% inhibitory concentration (IC50) worked out at 41 nM in assay [1] and 718 nM in assay [2].
On to `CCCN(C)C(=O)c1ccc(-c2cn3c(=O)/c(=C/c4cc(Cl)c(O)c(OC)c4)sc3n2)cc1` [Example 128, 4-{2-[1-(3-Chloro-4-hydroxy-5-methoxy-phenyl)-meth-(Z)-ylidene]-3-oxo-2,3-dihydro-imidazo[2,1-b]thiazol-6-yl}-N-methyl-N-propyl-benzamide], for which the IC50 in assay [1] was found to be 9 nM; in assay [2], 218 nM.
The matching figures for `CNC(=O)c1ccc(-c2cn3c(=O)/c(=C/c4cc(Cl)c(O)c(OC)c4)sc3n2)cc1` [Example 114, 4-{2-[1-(3-Chloro-4-hydroxy-5-methoxy-phenyl)-meth-(Z)-ylidene]-3-oxo-2,3-dihydro-imidazo[2,1-b]thiazol-6-yl}-N-methyl-benzamide]: 6 nM and 352 nM.
The matching figures for `COc1cc(/C=c2\sc3nc(-c4ccc(Cl)cc4)cn3c2=O)ccc1O` [Example 3, 6-(4-Chloro-phenyl)-2-[1-(4-hydroxy-3-methoxy-phenyl)-meth-(Z)-ylidene]-imidazo[2,1-b]thiazol-3-one]: 49 nM and 215 nM.
The matching figures for `COc1cc(/C=c2\sc3nc(-c4ccc(Cl)cc4)cn3c2=O)cc(C)c1O` [Example 32, 6-(4-Chloro-phenyl)-2-[1-(4-hydroxy-3-methoxy-5-methyl-phenyl)-meth-(Z)-ylidene]-imidazo[2,1-b]thiazol-3-one]: 7 nM and 39 nM.
Take `COc1cc(/C=c2\sc3nc(-c4ccc(Cl)cc4)cn3c2=O)cc(OC(C)C)c1O` [Example 30, 6-(4-Chloro-phenyl)-2-[1-(4-hydroxy-3-isopropoxy-5-methoxy-phenyl)-meth-(Z)-ylidene]-imidazo[2,1-b]thiazol-3-one]: the half-maximal inhibitory concentration (IC50) in assay [1] came out at 6 nM; in assay [2], 16 nM.

Values taken from US20150157739A1, “Imidazo[2,1]thiazol-3-one derivatives” (Hoffmann-La Roche Inc., priority 2012, published 2015).
